From patent publication US9986723B2, “Screen and use of therapeutics for pancreatic ductal adenocarcinoma” (The Board of Regents of the University of Texas System, priority 2014, dated 2018)

Assays:
[1] = system: orthotopic C5LM2 or Mia PaCa-2 tumors; assay: Gemcitabine combinations in mice bearing established orthotopic tumors; format: in vivo, mouse; details: combined with gemcitabine
Source text: Animal studies. All animals were housed in a pathogen-free facility with 24-hour access to food and water. Experiments were approved by, and conducted in accordance with, an IACUC approved protocol at UT Southwestern. LSL-Kras^G12D; Cdkn2a^lox/lox; p48^Cre (KIC) mice were generated as previously described (Ostapoff et al., 2014). Four- to 6-week-old female NOD/SCID and C57/B16 mice were obtained from an on campus supplier. A total of 1×10^6 AsPc-1, Panc-1, Mia Paca2, Capan-1, C5LM2, Mia shLuc and Mia shAxl or 5×10^5 Pan02 cells, were injected orthotopically as described (Ostapoff et al., 2014). Mice with established tumors, as determined by sonography were randomized to receive normal drinking water or water containing 1 mg/L (˜3.0 μM) warfarin for experiments in immunocompromised mice and 0.5 mg/L (˜1.5 μM) in experiments in immunocompetent animals with or without gemcitabine 25 mg/kg twice weekly depending on experimental design.

C5LM2 cells = assay: Liver metastases after intrasplenic tumor cell injection; format: in vivo, mouse; details: warfarin 1 mg/L, pre or post (48 hrs) tumor cell injection
Method: FIGS. 25A-I. Axl inhibition reduces colony formation and enhances chemotherapy. (FIGS. 25A-C) parental Mia PaCa-2 cells or Mia PaCa-2 cells stably transfected with shRNA targeting Axl (Mia shAxl) were grown as spheroids in matrigel for 7 days in the presence or absence of warfarin (200 ng/ml), n=4/condition. Mia PaCa-2 cell colonies form large stellate colonies characteristic of invasive tumor growth. Colonies and cognate cell projections were imaged (FIG. 25A) with a Nikon Phase contrast microscope using 40× and 200× magnification. Mean total colony number (FIG. 25B) and total colony area+/−s.d. (FIG. 25C) reflective of invasive growth were calculated using Image J image analysis. […] (FIG. 25E) liver metastases were quantified after intrasplenic injection of C5LM2 cells. […] Mice were sacrificed when control treated animals were moribund and primary and metastatic burden was determined. […]
Animal studies. […] Mice with established tumors, as determined by sonography were randomized to receive normal drinking water or water containing 1 mg/L (˜3.0 μM) warfarin for experiments in immunocompromised mice and 0.5 mg/L (˜1.5 μM) in experiments in immunocompetent animals with or without gemcitabine 25 mg/kg twice weekly depending on experimental design. […] Metastatic incidence was determined by visual inspection of the liver and abdominal cavity and confirmed by H&E of liver sections. […]

cell migration = assay: Scratch migration assay; format: cell-based; details: warfarin 2 μM, 16 hrs
Method: (FIG. 24A) HEK293 cells engineered to stably express recombinant Gas6 were grown in the presence of Vitamin K or Vitamin K+warfarin. Gas6 levels and γ-carboxylation were assayed by immunoblotting conditioned media. Conditioned media from untransfected HEK293 cells was used as a negative control. (FIG. 24B) Panc1 cells were grown overnight in media with 1% serum with no additions (NT), warfarin (2 μM) or BGB324 (2 μM). Lysates were probed for total Axl (tAxl) and phosphorylated Axl (pAxl). (FIG. 24C) Panc1 cells were grown in the presence of control media, Vitamin K, warfarin or warfarin+Vitamin K. The level of phosphorylated Axl (pAXL, red) was determined by immunofluorescence. (FIG. 24D) Panc1 cells were grown overnight in media with 1% serum with no additions (control), warfarin (1 μM), Gas6 (1.3 nM) or Gas6+warfarin. Lysates were probed for phosphorylated Akt (pAkt) and actin. (FIG. 24E) Lysates from Panc1 tumors harvested from mice treated with control or warfarin were probed for expression of tAxl, pAxl, actin, pAKT, tAKT, and cleaved Parp. (FIG. 24F) The effect of warfarin on cell migration was assessed by a ‘scratch’ assay. Monolayers of the indicted cells were wounded with a pipet tip. The cells were incubated in media containing 2% serum+/−warfarin (2 μM) or media containing 2% serum+Gas6 (1.3 nM)+/−warfarin.

## CC(=O)CC(c1ccccc1)c1c(O)c2ccccc2oc1=O (racemic) [Warfarin]
[1]
  augmentation of gemcitabine reduction of primary tumor growth and metastatic control: augmented gemcitabine reduction of primary tumor growth
C5LM2 cells
  liver colonization after intrasplenic injection: inhibited liver colonization
Cell migration
  basal and Gas6-induced cell migration (% wound closure): reduced
